The text below walks through data of US4797489A, “Adamantyl- and fluorenyl-arylpiperazines and -arylpiperidines” (American Home Products Corp., priority 1987, dated 1989).

What is called inhibition is the share of the control response that was lost under treatment. Broadly, the Ki is the equilibrium dissociation constant of an inhibitor or competing ligand from its target.

Test [1] addresses T1, 5-HT1A serotonin receptor (Rattus norvegicus, UniProt P19327).
T1 construct: 44, 1685-1696 (1985); from tissue
T1 sequence (P19327 1-422): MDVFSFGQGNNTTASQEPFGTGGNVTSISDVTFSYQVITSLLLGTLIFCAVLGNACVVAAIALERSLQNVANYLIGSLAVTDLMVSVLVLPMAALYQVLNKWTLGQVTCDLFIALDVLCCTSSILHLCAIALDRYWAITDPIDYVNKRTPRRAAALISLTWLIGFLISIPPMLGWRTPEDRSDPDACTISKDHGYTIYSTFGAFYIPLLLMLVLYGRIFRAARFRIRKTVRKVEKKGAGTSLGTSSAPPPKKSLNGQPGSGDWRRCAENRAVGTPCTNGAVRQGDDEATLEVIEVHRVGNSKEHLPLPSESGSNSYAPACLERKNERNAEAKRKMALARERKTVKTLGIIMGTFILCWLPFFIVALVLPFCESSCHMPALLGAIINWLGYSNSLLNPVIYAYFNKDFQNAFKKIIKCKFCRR
Briefly: 5-HT1A receptor binding, displacement of ^3 H-8-OH DPAT.
Description: The serotoninergic properties of the compounds of this invention were established by the procedure of Hall et al., J. Neurochem.

In test [2] the target is T2, limbic D2 (dopamine) receptor (Rattus norvegicus, UniProt P61169).
T2 construct: from tissue; rat inferred
Description: D2 receptor affinity, inhibition of ^3 H-spiroperidol (^3 H-spirohaloperidol) binding to limbic brain tissue.

For test [3], the system named is 5-HT2 receptor. Briefly: 5-HT2 inhibition of ^3 H-spiroperidol binding (rat brain cortex homogenate). As for the experimental part: 5-HT2 inhibition of ^3 H-spiroperidol is determined in an analogous manner, employing rat brain cortex homogenate as the receptor tissue, following a modification of Fields et al., ibid; Yamamura et al., ibid; and Creese et al., Eu. J. Pharmacol. 49, 20 (1978).

The conditions of test [4]: Barone et al., 1986; cited from earlier work.

T2 sequence (P61169 whole entry): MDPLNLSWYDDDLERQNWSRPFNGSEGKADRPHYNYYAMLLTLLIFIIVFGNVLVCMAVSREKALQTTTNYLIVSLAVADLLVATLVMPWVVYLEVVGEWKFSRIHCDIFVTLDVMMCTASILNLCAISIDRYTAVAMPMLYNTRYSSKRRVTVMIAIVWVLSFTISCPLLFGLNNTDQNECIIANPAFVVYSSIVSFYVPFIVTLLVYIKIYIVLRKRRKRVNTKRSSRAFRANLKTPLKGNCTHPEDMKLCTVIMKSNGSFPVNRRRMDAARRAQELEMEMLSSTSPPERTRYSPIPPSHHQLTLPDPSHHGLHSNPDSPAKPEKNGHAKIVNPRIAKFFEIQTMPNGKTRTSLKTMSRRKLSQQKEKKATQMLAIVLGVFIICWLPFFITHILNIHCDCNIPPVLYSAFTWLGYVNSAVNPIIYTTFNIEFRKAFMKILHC

Consider `O=C1CC2(CCCC2)CC(=O)N1CCCCN1CCN(c2ncccn2)CC1` [Buspirone, reference compound], for which the inhibition at 0.001 µM in test [1] (read-out: percent inhibition (5-HT1A, ^3 H-8-OH DPAT)) was found to be 97%.
In the case of `O=C(OCCCN1CCN(c2cccc(Cl)c2)CC1)C12CC3CC(CC(C3)C1)C2` [Example 1, Tricyclo[3.3.1.1^3,7]decane-1-carboxylic acid 3-[4-(3-chlorophenyl)-1-piperazinyl]propyl ester], the inhibition at 1 µM in test [2] stood at 67%; in test [1] (^3 H-8-OH DPAT) it was 80%.
The compound `O=C(OCCN1CCN(c2ncccn2)CC1)C12CC3CC(CC(C3)C1)C2` [Example 2, Tricyclo[3.3.1.1^3,7]decane-1-carboxylic acid 2-[4-(2-pyrimidinyl)-1-piperazinyl]ethyl ester] yielded an inhibition at 1 µM in test [2] of 26%. In addition, the Ki in test [1] (^3 H-8-OH DPAT, Ki calculated from IC50 values) is 8.5 nM.
In the case of `COc1ccccc1N1CCN(CCCOC(=O)C23CC4CC(CC(C4)C2)C3)CC1` [Example 3, Tricyclo[3.3.1.1^3,7]decane-1-carboxylic acid 3-[4-(2-methoxyphenyl)-1-piperazinyl]propyl ester], the inhibition at 1 µM is 90% in test [2] and 100% in test [1] (^3 H-8-OH DPAT).
Taken in the same sequence, the figures for `CC12CC3CC(C1)CC(CC(=O)OCCN1CCN(c4ncccn4)CC1)(C3)C2` [Example 4, 3-Methyltricyclo[3.3.1.1^3,7]decane-1-acetic acid 2-[4-(2-pyrimidinyl)-1-piperazinyl]ethyl ester] were 39% and 72%.
`COc1ccccc1N1CCN(CCOC(=O)c2cccc3c2Cc2ccccc2-3)CC1` [Example 5, 9H-Fluorene-1-carboxylic acid 2-[4-(2-methoxyphenyl)-1-piperazinyl]ethyl ester]: the inhibition at 1 µM in test [1] (^3 H-8-OH DPAT) turned out to be 100%.
For `O=C(OCCCN1CCN(c2ncccn2)CC1)C12CC3CC(CC(C3)C1)C2` [Example 7, Tricyclo[3.3.1.1^3,7]decane-1-carboxylic acid 3-[4-(2-pyrimidinyl)-1-piperazinyl]propyl ester], the inhibition at 1 µM in test [2] is 33%; in test [1] (^3 H-8-OH DPAT), 69%.
In the case of `O=C(OCCN1CCN(c2cccc(Cl)c2)CC1)c1cccc2c1Cc1ccccc1-2` [Example 8, 9H-Fluorene-1-carboxylic acid 2-[4-(3-chlorophenyl)-1-piperazinyl]ethyl ester], in test [1] (^3 H-8-OH DPAT), the inhibition at 1 µM came out at 53%.
Regarding `N#Cc1ccccc1N1CCN(CCOC(=O)C23CC4CC(CC(C4)C2)C3)CC1` [Example 10, Tricyclo[3.3.1.1^3,7]decane-1-carboxylic acid [2-[4-(2-cyanophenyl)-1-piperazinyl]ethyl]ester], testing at 1 µM in test [2] gave an inhibition of 90%.
Consider `O=C(OCCN1CCC(=C(c2ccc(F)cc2)c2ccc(F)cc2)CC1)C12CC3CC(CC(C3)C1)C2` [Example 11, Tricyclo[3.3.1.1^3,7]decane-1-carboxylic acid 2-[4-[bis(4-fluorophenyl)methylene]-1-piperidinyl]ethyl ester], for which the inhibition at 1 µM in test [2] turned out to be 100%; in test [1] (^3 H-8-OH DPAT), 95%. The “5HT2 Receptor Binding % Inhibition at 1 μM” value in test [3] came out at 98%.
For the compound `CC12CC3CC(C1)CC(CC(=O)OCCN1CCC(=C(c4ccc(F)cc4)c4ccc(F)cc4)CC1)(C3)C2` [Example 12, Tricyclo[3.3.1.1^3,7]decane-3-methyl-1-acetic acid 2-[4-[bis(4-fluorophenyl)methylene]-1-piperidinyl]ethyl ester], the inhibition at 1 µM in test [2] amounted to 36%. In addition, in test [3], the “5HT2 Receptor Binding % Inhibition at 1 μM” value amounted to 63%.
For `Cc1nc2sccn2c(=O)c1CCN1CCC(=C(c2ccc(F)cc2)c2ccc(F)cc2)CC1` [Ritanserin], in test [4], the “clinical efficacy as anxiolytic-antidepressant agents” value is reported as “demonstrated clinical efficacy”.
